Source: patent publication US12629374B2, “Antimalarial agents” (Merck Sharp & Dohme LLC, priority 2020, dated 2026)
Read-outs that look alike come from different tables or passages of the source.

Test system: ring stage parasites
Assay: Parasite growth potency assay, 72 hours, LDH readout
Format: cell-based
Conditions: parasite growth measured by LDH assay after 72 hours at 37° C., 0.7% rings, 2% haematocrit, read-out: EC50
In short: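 Parasite growth was quantified by LDH assay after a −80 °C freeze-thaw. Before that, compound was incubated for 72 h at 37 °C under humidified gas with ring-stage cultures adjusted to 0.7% parasitemia and 2% haematocrit in serum- and albumax-supplemented RPMI-Hepes.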

Row | Compound | EC50 (72 h) [nM] | EC50 [nM]
1 | CCC1(CC)CC(=O)N(C(COC)c2cccc(C(=O)N[C@@H]3c4ccccc4C[C@H]3O)c2)C(=N)N1 (stereo partly drawn) [Example 223, 3-[1-(4,4-diethyl-2-imino-6-oxo-hexahydropyrimidin-1-yl)-2-methoxy-ethyl]-N-[(1R,2R)-2-hydroxyindan-1-yl]benzamide] | 2.3 | 
2 | CC1(C)CC(=O)N(C(CC(F)(F)F)c2cccc(C(=O)N[C@@H]3c4ccccc4C[C@H]3O)c2)C(=N)N1 (stereo partly drawn) [Example 224, N-[(1R,2R)-2-hydroxyindan-1-yl]-3-[3,3,3-trifluoro-1-(2-imino-4,4-dimethyl-6-oxo-hexahydropyrimidin-1-yl)propyl]benzamide] | 15.5 | 
3 | CC[C@]1(C)CC(=O)N([C@H](C)c2cccc(C(=O)NC3c4ccccc4OC(C)(C)C3(C)O)c2)C(=N)N1 (stereo partly drawn) [Example 225, 3-[(1R)-1-[(4R)-4-ethyl-2-imino-4-methyl-6-oxo-hexahydropyrimidin-1-yl]ethyl]-N-(3-hydroxy-2,2,3-trimethyl-chroman-4-yl)benzamide] | 0.32 | 
4 | CCC1(CC)CC(=O)N([C@H](CCOC)c2cccc(C(=O)NC3c4ccccc4CCC3O)c2)C(=N)N1 (stereo partly drawn) [Example 226, 3-[(1R)-1-(4,4-diethyl-2-imino-6-oxo-hexahydropyrimidin-1-yl)-3-methoxy-propyl]-N-(2-hydroxytetralin-1-yl)benzamide] | 2.2 | 
5 | CCC1(CC)NC(=N)N([C@H](CCOC)c2cccc(C(=O)N[C@@H]3c4ccccc4C[C@H]3O)c2)C(=O)C1C (stereo partly drawn) [Example 227A, 3-[(1R)-1-(4,4-diethyl-2-imino-5-methyl-6-oxo-hexahydropyrimidin-1-yl)-3-methoxy-propyl]-N-[(1R,2R)-2-hydroxyindan-1-yl]benzamide] | 1.25 | 
6 | CCC1(CC)NC(=N)N([C@H](CCOC)c2cccc(C(=O)N[C@@H]3c4ccccc4C[C@H]3O)c2)C(=O)C1C (stereo partly drawn) [Example 227B, 3-[(1R)-1-(4,4-diethyl-2-imino-5-methyl-6-oxo-hexahydropyrimidin-1-yl)-3-methoxy-propyl]-N-[(1R,2R)-2-hydroxyindan-1-yl]benzamide] |  | 1.16
7 | CCC1(CC)CC(=O)N([C@H](C)c2cccc(C(=O)N[C@@H]3c4ccccc4OC(C)(C)[C@@]3(C)O)c2)C(=N)N1 [Example 228, 3-[(1R)-1-(4,4-diethyl-2-imino-6-oxo-hexahydropyrimidin-1-yl)ethyl]-N-[(3S,4R)-3-hydroxy-2,2,3-trimethyl-chroman-4-yl]benzamide] | 0.34 | 
8 | CCC1(CC)CC(=O)N(C(COC)c2cccc(C(=O)N[C@@H]3c4ccccc4OC[C@]3(C)O)c2)C(=N)N1 (stereo partly drawn) [Example 229, 3-[1-(4,4-diethyl-2-imino-6-oxo-hexahydropyrimidin-1-yl)-2-methoxy-ethyl]-N-[(3R,4R)-3-hydroxy-3-methyl-chroman-4-yl]benzamide] | 2.2 | 
9 | CCC1(CC)CC(=O)N(C(COC)c2cccc(C(=O)N[C@@H]3c4ccccc4OC[C@@]3(C)O)c2)C(=N)N1 (stereo partly drawn) [Example 230, 3-[l-(4,4-diethyl-2-imino-6-oxo-hexahydropyrimidin-1-yl)-2-methoxy-ethyl]-N-[(3S,4R)-3-hydroxy-3-methyl-chroman-4-yl]benzamide] |  | 0.84
10 | COCC[C@H](c1cccc(C(=O)N[C@@H]2c3ccccc3OC(C)(C)[C@@]2(C)O)c1)N1C(=N)NC(C)(C)CC1=O [Example 231, N-[(3S,4R)-3-hydroxy-2,2,3-trimethyl-chroman-4-yl]-3-[(1R)-1-(2-imino-4,4-dimethyl-6-oxo-hexahydropyrimidin-1-yl)-3-methoxy-propyl]benzamide] | 2.9 | 
11 | CCC1(CC)CC(=O)N(C(COC)c2cccc(C(=O)N[C@@H]3c4ccccc4OC(C)(C)[C@H]3O)c2)C(=N)N1 (stereo partly drawn) [Example 232, 3-[l-(4,4-diethyl-2-imino-6-oxo-hexahydropyrimidin-1-yl)-2-methoxy-ethyl]-N-[(3S,4R)-3-hydroxy-2,2-dimethyl-chroman-4-yl]benzamide] | 0.32 | 
12 | CC1(C)CC(=O)N(C(CC(F)(F)F)c2cccc(C(=O)N[C@@H]3c4ccccc4OC(C)(C)[C@H]3O)c2)C(=N)N1 (stereo partly drawn) [Example 233, N-[(3S,4R)-3-hydroxy-2,2-dimethyl-chroman-4-yl]-3-[3,3,3-trifluoro-1-(2-imino-4,4-dimethyl-6-oxo-hexahydropyrimidin-1-yl)propyl]benzamide] | 1.4 | 
13 | COCC[C@H](c1cccc(C(=O)NC2c3cc(F)ccc3OC(C)(C)C2(C)O)c1)N1C(=N)NC(C)(C)CC1=O (stereo partly drawn) [Example 235, N-(6-fluoro-3-hydroxy-2,2,3-trimethyl-chroman-4-yl)-3-[(1R)-1-(2-imino-4,4-dimethyl-6-oxo-hexahydropyrimidin-1-yl)-3-methoxy-propyl]benzamide] | 0.32 | 
14 | CCC1(CC)CC(=O)N(C(CCOC)c2ccc(C(F)(F)F)c(C(=O)N[C@@H]3c4ccccc4C[C@H]3O)c2)C(=N)N1 (stereo partly drawn) [Example 239, 5-[1-(4,4-diethyl-2-imino-6-oxo-hexahydropyrimidin-1-yl)-3-methoxy-propyl]-N-[(1R,2R)-2-hydroxyindan-1-yl]-2-(trifluoromethyl)benzamide] | 3.6 | 
15 | CCC1(CC)CC(=O)N(C(CCOC)c2ccc(C(F)(F)F)c(C(=O)N[C@@H]3c4ccccc4C[C@@]3(C)O)c2)C(=N)N1 (stereo partly drawn) [Example 241, 5-[1-(4,4-diethyl-2-imino-6-oxo-hexahydropyrimidin-1-yl)-3-methoxy-propyl]-N-[(1R,2R)-2-hydroxy-2-methyl-indan-1-yl]-2-(trifluoromethyl)benzamide] | 9.84 | 
16 | CCC1(CC)CC(=O)N(C(CCOC)c2ccc(C(F)(F)F)c(C(=O)N[C@@H]3c4ccccc4C[C@]3(C)O)c2)C(=N)N1 (stereo partly drawn) [Example 242, 5-[1-(4,4-diethyl-2-imino-6-oxo-hexahydropyrimidin-1-yl)-3-methoxy-propyl]-N-[(1R,2S)-2-hydroxy-2-methyl-indan-1-yl]-2-(trifluoromethyl)benzamide] | 2.28 | 
17 | CCC1(CC)CC(=O)N(C(CCOC)c2ccc(C(F)(F)F)c(C(=O)N[C@@H]3c4ccccc4OC[C@H]3O)c2)C(=N)N1 (stereo partly drawn) [Example 243, 5-[1-(4,4-diethyl-2-imino-6-oxo-hexahydropyrimidin-1-yl)-3-methoxy-propyl]-N-[(3S,4R)-3-hydroxychroman-4-yl]-2-(trifluoromethyl)benzamide] | 6.4 | 
18 | CCC1(CC)CC(=O)N(C(CCOC)c2ccc(C(F)(F)F)c(C(=O)N[C@@H]3c4ccccc4OC[C@@]3(C)O)c2)C(=N)N1 (stereo partly drawn) [Example 244, 5-[1-(4,4-diethyl-2-imino-6-oxo-hexahydropyrimidin-1-yl)-3-methoxy-propyl]-N-[(3S,4R)-3-hydroxy-3-methyl-chroman-4-yl]-2-(trifluoromethyl)benzamide] | 6.13 | 
19 | CCC1(CC)CC(=O)N(C(CCOC)c2ccc(C(F)(F)F)c(C(=O)N[C@@H]3c4ccccc4OC[C@]3(C)O)c2)C(=N)N1 (stereo partly drawn) [Example 245, 5-[1-(4,4-diethyl-2-imino-6-oxo-hexahydropyrimidin-1-yl)-3-methoxy-propyl]-N-[(3R,4R)-3-hydroxy-3-methyl-chroman-4-yl]-2-(trifluoromethyl)benzamide] | 1.6 | 
20 | CCC1(CC)CC(=O)N(C(CCOC)c2ccc(C(F)(F)F)c(C(=O)N[C@@H]3c4ccccc4OC(C)(C)[C@H]3O)c2)C(=N)N1 (stereo partly drawn) [Example 246, 5-[1-(4,4-diethyl-2-imino-6-oxo-hexahydropyrimidin-1-yl)-3-methoxy-propyl]-N-[(3S,4R)-3-hydroxy-2,2-dimethyl-chroman-4-yl]-2-(trifluoromethyl)benzamide] | 1.74 | 
